Here are results for 6 molecules from patent US20100203126A1 (priority 2007, published 2010).

Data set [1] is described as follows: Stability test for ubidecarenone according to content of 90% ascorbic acid. It counts as physicochemical. The settings on record: text summary of Table 28. The text has this: The results are as follows.
Data set [2] can be described thus: Stability test for ubidecarenone and vitamins/minerals under co-existence, mixed 1:1. It counts as physicochemical. The conditions noted are these: for effect of ingredient on stability of ubidecarenone: each ingredient singly mixed with ubidecarenone (Table 26); for % residual amount of ubidecarenone: mixed 1:1, 40±2° C., 75±5 RH %.
Data set [3] is described as follows: Stability test for ubidecarenone and vitamins/minerals under co-existence at typical formulation ratio. The data set is classed as physicochemical. The settings on record: ubidecarenone 50 mg, accelerated stability test.
For data set [4] the following is noted: cited from earlier work.

Where two headings read alike, the source gives them in different places.

Consider `O=C1O[C@H]([C@@H](O)CO)C(O)=C1O` [ascorbic acid], for which, in data set [1], the “residual amount of ubidecarenone as content of ascorbic acid in sample tablet increases” value is listed as “remarkably reduced”.

As for `C=C1CC[C@H](O)C/C1=C/C=C1\CCC[C@]2(C)[C@@H]([C@H](C)CCCC(C)C)CC[C@@H]12` [dried cholecalciferol], in data set [2], the “effect of ingredient on stability of ubidecarenone” value (“effect of ingredient” below) is recorded as “excessively reduce the stability of ubidecarenone”.

For the molecule `C[N+](C)(C)CCO.O=C([O-])C(O)C(O)C(=O)O` (stereo not drawn) [choline bitartrate], the “effect of ingredient” value in data set [2] is reported as “excessively reduce the stability of ubidecarenone”.

Regarding `CCCCCCCCCCCCCCCC(=O)OC/C=C(C)/C=C/C=C(C)/C=C/C1=C(C)CCCC1(C)C` [retinol palmitate], in data set [2], the “effect of ingredient” value is “excessively reduce the stability of ubidecarenone”.

Consider `CC(=O)Oc1c(C)c(C)c2c(c1C)CCC(C)(CCC[C@H](C)CCC[C@H](C)CCCC(C)C)O2` (stereo partly drawn) [alpha-tocopherol acetate], for which, in data set [2], the “effect of ingredient” value is listed as “excessively reduce the stability of ubidecarenone”.

Take `COC1=C(OC)C(=O)C(C/C=C(\C)CC/C=C(\C)CC/C=C(\C)CC/C=C(\C)CC/C=C(\C)CC/C=C(\C)CC/C=C(\C)CC/C=C(\C)CC/C=C(\C)CCC=C(C)C)=C(C)C1=O` [Ubidecarenone]: the “residual amount of ubidecarenone, 2 weeks (%)” value in data set [3] (2 weeks) is listed as 99.2%. In addition, the “residual amount of ubidecarenone, Initial (%)” value in data set [3] (initial) was 100%. For the same molecule, the “% residual amount of ubidecarenone” value turned out to be 99.2% in data set [2] (2 weeks) and 100% in data set [2] (initial (regarded as 100.0%)). The figures for the solubility entry in data set [4] (in alcohol), in data set [4] (in ether) and in data set [4] (in water) were “insoluble”, “highly soluble” and “insoluble”, respectively.
